In patent publication US10022382B2, “RNA polymerase I inhibitors and uses thereof” (Tel HaShomer Medical Research Infrastructure and Services …, priority 2013, dated 2018):

Columns and labels:
[1] = test system: Mouse splenocytes; test: XTT cell viability assay, PHA-stimulated splenocytes; format: cell-based; details: 72 hours; for IC50: Splenocyte; for IC50 / XTT IC50: mouse splenocytes, 25-400 nM
Procedure: Cell viability was assessed by the 2,3 bis [2-Methoxy-4-nitro-5-sulfophenyl]-2H-tetrazolium-5-carboxanilide (XTT) assay (Biological Industries, Kibbutz Beit Hemeek, Israel), which measures the reduction of a tetrazolium component (XTT) into soluble formazan product by the mitochondria of viable cells. The intensity of the dye obtained is proportional to the number of metabolic active cells. On the day of measurement, cells were washed and XTT was added according to the manufacturer's instructions. Plates were incubated at 37° C. for 2-5 hours. The absorbance was read at 450 nm.
Mouse splenocytes were removed and spleenocytes were plated (250,000 cell/well) in DMEM+10% FCS+P/S+Q and […] Phytohaemaglutinin (PHA), in the presence of elevated concentrations (25-400 nM) of RAM-0 (Compound 1), RAM-1 (Compound 4), RAM-2 (Compound 2) or RAM-3 (Compound 3) for 72 hours. Cells cultured without PHA served as control. Control mice at zero are mice splenocytes with PHA stimulation.
Following incubation, cell viability was determined by XTT assay, as described above.

[2] = test system: MOG35-55 EAE in C57BL/6J mice; test: MOG35-55 EAE prevention (immunization) model; format: in vivo; details: Mus musculus
Procedure: Mice: Eight-weeks-old female C57BL/6J mice (15-20 g, Harlan laboratories, Rehovot, Israel) were used in all experiments. Animal maintenance and experimental protocols were performed in accordance with the Israeli Council for Animal Care guidelines and approved by Sheba IRB Animal Care Committee. Mice were kept in an SPF environment, maintained on a 12-h light/dark cycle at a constant environmental temperature with free access to food and water in their home cages.
Induction of MOG35-55 EAE (Prevention Model): EAE (Experimental Autoimmune Encephalomyelitis) was induced in 8 week old female C57BL/6J mice (15-20 g, Harlan laboratories, Rehovot, Israel) by immunization with an emulsion containing 300 μg of purified myelin oligodendrocyte glycoprotein (MOG) peptide ([…], corresponding to residues 35-55; obtained from (Difco, Detroit, Mich.) in saline and an equal volume of complete Freund's adjuvant containing 5 mg H37RA (Difco, Detroit, Mich.). 0.2 ml of the inoculum was injected subcutaneously. In addition, 300 ng of Bordetella pertusis toxin (Sigma) in 0.2 ml saline was injected intraperitoneally at the day of induction and two days later.
Oral gavages with the tested compound, at various concentrations ranging from 3 mg/kg-30 mg/kg in PBS or 50 mM NaH2PO4 (PH 4.5), or with vehicle only, were initiated at day of immunization. Mice were monitored daily for clinical signs of EAE, scored as: 1, flaccid tail; 2, forelimb weakness and poor righting ability; 3, hind limb paralysis; 4, quadriplegia; 5, moribund. Animal reaching a score of 4 were scarified using CO2.
Treatment was stopped once 30% of the vehicle-treated animals scored 1 on the EAE score. […]
The therapeutic index (LD50/ED50), which is also referred to herein as Safety Margin (SM), was then determined based on the EAE model. ED50 is the minimum effective dose observed for 50% of the tested animals.

[3] = Toxicity (LD50, survival) in the EAE model, continuous administration; format: in vivo; details: C57BL/6J, mouse, in vivo, oral; EAE prevention model, continuous administration
Procedure: (§1) The animals were evaluated for signs of acute toxicity and survival during the entire administration period in the EAE model.
(§2) The therapeutic index (LD50/ED50), which is also referred to herein as Safety Margin (SM), was then determined based on the EAE model.

[4] = test system: C57BL/6J mice; test: as above; format: in vivo; details: EAE prevention model
Procedure: as §1, §2

[5] = Solubility in mQ water; format: physicochemical; details: 50 mg in 0.5 mL mQ water, room temperature
Procedure: The solubility of Compounds 1 and 10 was determined by dissolving 50 mg of the tested compound in 0.5 mL of mQ water, at room temperature.

[6] = test system: POL-I; details: human cancer cell lines; cited from earlier work
[7] = test system: Experimental Autoimmune Encephalomyelitis (EAE); details: cited from earlier work

For C/N=c1/c(C(=O)NCc2cnc(C)cn2)c2sc3ccccc3n2c2nc(N3CCCN(C)CC3)ccc12 [Compound 5, (E/Z)-2-(4-methyl-1,4-diazepan-1-yl)-5-(methylimino)-N-((5-methylpyrazin-2-yl)methyl)-5H-benzo[4,5]thiazolo[3,2-a][1,8]naphthyridine-6-carboxamide], which IC50 [1] is on record?
Its IC50 is 50 nM.

What does the source list for Cc1cnc(CNC(=O)c2c(Cl)c3ccc(N4CCCN(C)CC4)nc3[n+]3c2sc2ccccc23)cn1 [Compound 2, 5-chloro-2-(4-methyl-1,4-diazepan-1-yl)-6-(((5-methylpyrazin-2-yl)methyl)carbamoyl)benzo[4,5]thiazolo[3,2-a][1,8]naphthyridin-12-ium]?
suppression of splenocyte proliferation compared to Compound 1 (XTT) [1]: no substantial effect; XTT IC50 [1]: No Effect

For CCC/N=c1/c(C(=O)NCc2cnc(C)cn2)c2sc3ccccc3n2c2nc(N3CCCN(C)CC3)ccc12 [Compound 6], which IC50 [1] is on record?
Its IC50 is 50 nM.

With CO/N=c1/c(C(=O)NCc2cnc(C)cn2)c2sc3ccccc3n2c2nc(N3CCCN(C)CC3)ccc12 [Compound 8] as the molecule, how does the IC50 [1] read?
Its IC50 is 50 nM.

With Cc1cnc(CNC(=O)c2/c(=N/C(C)C)c3ccc(N4CCCN(C)CC4)nc3n3c2sc2ccccc23)cn1 [Compound 7] as the molecule, how does the IC50 [1] read?
Its IC50 is 50 nM.

Which IC50 [1] does the source give for Cc1cnc(CNC(=O)c2c(=O)c3ccc(N4CCCN(C)CC4)nc3n3c2sc2ccccc23)cn1 [Compound 1, 2-(4-methyl-1,4-diazepan-1-yl)-N-((5-methylpyrazin-2-yl)methyl)-5-oxo-5H-benzo[4,5]thiazolo[3,2-a][1,8]naphthyridine-6-carboxamide, reference compound] here?
The IC50 was 50 nM.

And the ED50 [2]?
The ED50 was 12.5 mg/kg.

What about the LD50 [3] of the same molecule?
The LD50 was 25 mg/kg.

What about the “SM (therapeutic index LD50/ED50)” value [4] of the same molecule?
The value was 2.

And the solubility [5]?
Its solubility is “dissolved only in a pH 4.5 buffered solution after vigorous stirring for 30 minutes”.

And the POL-I activity [6]?
The POL-I activity was “inhibited POL-I activity”.

What about the EAE disease severity ([7]; administered at clinical disease onset) of the same molecule?
The EAE disease severity was “reduce the disease severity”.

What about the EAE prevention ([7]; administered at disease induction) of the same molecule?
The EAE prevention was “prevent animal Experimental Autoimmune Encephalomyelitis (EAE)”.

For Cc1cnc(CNC(=O)c2c(=N)c3ccc(N4CCCN(C)CC4)nc3n3c2sc2ccccc23)cn1 [Compound 4, 5-imino-2-(4-methyl-1,4-diazepan-1-yl)-N-((5-methylpyrazin-2-yl)methyl)-5H-benzo[4,5]thiazolo[3,2-a][1,8]naphthyridine-6-carboxamide], which “suppression of splenocyte proliferation compared to Compound 1 (XTT)” value [1] is on record?
The value was “dose response curve similar to RAM-0 (Compound 1)”.

And the IC50 [1]?
Its IC50 is 50 nM.

With Cc1cnc(CNc2nc(=O)nc3c4ccc(N5CCCN(C)CC5)nc4n4c(sc5ccccc54)c2-3)cn1 [Compound 9] as the molecule, how does the “XTT IC50” value [1] read?
The value was “No Effect”.

Which “effectiveness in suppressing proliferation compared to Compound 1” value [1] does the source give for Cc1cnc(CNC(=O)c2c(=S)c3ccc(N4CCCN(C)CC4)nc3n3c2sc2ccccc23)cn1 [Compound 3, 2-(4-methyl-1,4-diazepan-1-yl)-N-((5-methylpyrazin-2-yl)methyl)-5-thioxo-5H-benzo[4,5]thiazolo[3,2-a][1,8]naphthyridine-6-carboxamide] here?
Its value is 6 folds.

And the IC50 [1]?
Its IC50 is 20 nM.
